Assays:
[1] = molecular target: T1, murine IRE1α (Mus musculus, UniProt Q9EQY0, N772Y); assay: biochemical; conditions: IC50 IRE1α RNase activity, naphthol analogue series, average n=4 +/- s.d.
[2] = test system: CD59 mRNA (RIDD target); assay: CD59; type: cell-based, human; conditions: 10 μM
[3] = molecular target: T2, murine IRE1α Lys907Ala (Mus musculus, UniProt Q9EQY0, K907A/N772Y); assay: Gel based RNase cleavage assay with dual-hairpin RNA substrate; type: biochemical; conditions: 100 μM IRE1α, 60 μM dual hairpin substrate
[4] = molecular target: murine IRE1α Tyr892Ala (Mus musculus, UniProt Q9EQY0, N772Y/Y892A); assay: Direct binding by micro-scale thermophoresis; conditions: Kd (avg), average
[5] = test system: XBP1 mRNA splicing (IRE1α); assay: XBP1 mRNA splicing in RPMI 8226 plasmacytoma cells; type: cell-based, human
[6] = molecular target: T2, murine IRE1α Lys907Ala; assay: Direct binding by micro-scale thermophoresis
[7] = molecular target: T3, yeast IRE1 (Saccharomyces cerevisiae, UniProt P32361, DEL869-892); assay: IRE1 RNase activity, real time fluorescence readout assay; type: biochemical; conditions: RNase inhibition
T3 sequence (P32361 with tags, fused parts or gaps DEL869-892): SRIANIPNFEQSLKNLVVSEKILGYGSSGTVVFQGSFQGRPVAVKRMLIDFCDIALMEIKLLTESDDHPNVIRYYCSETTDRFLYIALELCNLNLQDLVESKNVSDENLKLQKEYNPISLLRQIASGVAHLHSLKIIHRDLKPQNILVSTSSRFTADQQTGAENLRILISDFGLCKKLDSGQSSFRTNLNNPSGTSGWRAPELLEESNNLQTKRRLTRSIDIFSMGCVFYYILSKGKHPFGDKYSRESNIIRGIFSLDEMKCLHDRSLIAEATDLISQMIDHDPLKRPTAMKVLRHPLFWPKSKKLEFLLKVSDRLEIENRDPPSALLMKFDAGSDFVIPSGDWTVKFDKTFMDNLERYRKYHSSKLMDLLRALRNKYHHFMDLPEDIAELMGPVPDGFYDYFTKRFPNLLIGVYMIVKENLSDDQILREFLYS

[8] = molecular target: murine IRE1α His910Ala (Mus musculus, UniProt Q9EQY0, H910A/N772Y); assay: Direct binding by micro-scale thermophoresis; conditions: Kd (avg), average
[9] = molecular target: murine IRE1α Asn906Leu (Mus musculus, UniProt Q9EQY0, N772Y/N906L); assay: Direct binding by micro-scale thermophoresis; conditions: Kd (avg), average
[10] = molecular target: murine IRE1α Phe889Ala (Mus musculus, UniProt Q9EQY0, F889A/N772Y); assay: Direct binding by micro-scale thermophoresis; conditions: Kd (avg), average
[11] = molecular target: IRE1α auto-kinase activity (Mus musculus, UniProt Q9EQY0, N772Y); assay: IRE1α auto-kinase; type: biochemical, murine
[12] = test system: myeloma tumor; conditions: cited from earlier work
[13] = test system: rheumatoid arthritis model; conditions: cited from earlier work
[14] = molecular target: murine IRE1α auto-kinase activity (Mus musculus, UniProt Q9EQY0, N772Y); assay: Auto-phosphorylation kinase assay with P32-γ-ATP; type: biochemical; conditions: read-out: IC50 (avg) auto-kinase activity of murine IRE1α; 10 minute time point; n=2
[15] = molecular target: T3, yeast IRE1; conditions: cited from earlier work
[16] = molecular target: T1, murine IRE1α; assay: Oligomerization status by velocity analytical ultracentrifugation; conditions: ADP 500 μM, JAK inhibitor I 30 μM

T1 sequence (Q9EQY0 499-977 N772Y): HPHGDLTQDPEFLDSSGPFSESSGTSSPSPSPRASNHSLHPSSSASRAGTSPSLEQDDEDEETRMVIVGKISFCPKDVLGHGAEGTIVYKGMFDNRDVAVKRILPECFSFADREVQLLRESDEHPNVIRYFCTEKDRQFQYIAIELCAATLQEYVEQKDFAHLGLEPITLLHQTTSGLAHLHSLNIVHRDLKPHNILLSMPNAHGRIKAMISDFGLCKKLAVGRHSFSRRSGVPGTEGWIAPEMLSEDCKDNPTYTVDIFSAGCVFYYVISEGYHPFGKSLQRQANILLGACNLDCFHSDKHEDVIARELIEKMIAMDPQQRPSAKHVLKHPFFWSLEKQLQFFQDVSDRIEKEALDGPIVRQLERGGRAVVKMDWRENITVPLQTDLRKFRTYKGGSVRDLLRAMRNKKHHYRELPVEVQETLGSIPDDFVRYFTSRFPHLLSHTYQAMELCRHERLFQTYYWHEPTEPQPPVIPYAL
T2 sequence (Q9EQY0 499-977 N772Y/K907A): as the sequence (Q9EQY0 499-977 N772Y) above, with K409A counted along it
murine IRE1α Tyr892Ala, sequence (Q9EQY0 499-977 N772Y/Y892A): as the sequence (Q9EQY0 499-977 N772Y) above, with Y394A counted along it
murine IRE1α Phe889Ala, sequence (Q9EQY0 499-977 N772Y/F889A): as the sequence (Q9EQY0 499-977 N772Y) above, with F391A counted along it
murine IRE1α auto-kinase activity, sequence (Q9EQY0 499-977 N772Y): as the sequence (Q9EQY0 499-977 N772Y) above
IRE1α auto-kinase activity, sequence (Q9EQY0 499-977 N772Y): as above
murine IRE1α Asn906Leu, sequence (Q9EQY0 499-977 N772Y/N906L): as the sequence (Q9EQY0 499-977 N772Y) above, with N408L counted along it
murine IRE1α His910Ala, sequence (Q9EQY0 499-977 N772Y/H910A): as the sequence (Q9EQY0 499-977 N772Y) above, with H412A counted along it

Compound: O=Cc1c(O)ccc2ccc(Br)cc12 [MKC3987, 7-Bromo-2-hydroxy-naphthalene-1-carbaldehyde]
- IC50 [1]: 0.39 µM

Compound: CN1CCN(C(=O)c2ccc(-c3ccc4ccc(O)c(C=O)c4c3)cc2)CC1 [MKC4027, 2-Hydroxy-7-[4-(4-methyl-piperazine-1-carbonyl)-phenyl]-naphthalene-1-carbaldehyde]
- IC50 [1]: 5.7 µM

Compound: COCCOCCc1c(C)c2cc(OC)c(O)c(C=O)c2oc1=O [MKC9989, 7-Hydroxy-6-methoxy-3-(2-(2-methoxyethoxy)ethyl)-4-methyl-2-oxo-2H-chromene-8-carbaldehyde]
- CD59 mRNA level ([2]; administered 2 hour post treatment with thapsigargin): moderately stabilized
- CD59 mRNA level ([2]; co-administered with thapsigargin relative to thapsigargin alone): markedly stabilized
- CD59 mRNA level ([2]; non-stressed cells): modestly increased
- Sensitivity of RNase activity to inhibitor [3]: insensitive
- Kd [4]: 10 µM
- Inhibition of basal and thapsigargin induced splicing of XBP1 mRNA ([5]; 10 μM compound, 1 μM thapsigargin, RPMI 8226): completely inhibited
- EC50 ([5]; Homo sapiens, RPMI-8226, read-out: EC50 (avg) XBP1 splicing): 0.33 µM
- Binding to IRE1α Lys907Ala [6]: abolished detectable binding
- Resistance of yeast IRE1 relative to IRE1α [7]: ~ 100 fold
- Kd [8]: 5.3 µM
- Kd [9]: 8.9 µM
- Kd [10]: 10.9 µM
- IC50 [11]: > 10 µM

Compound: CN1CCN(C(=O)c2ccc(-c3ccc4c(C=O)c(O)ccc4c3)s2)CC1 [MKC3946, 2-Hydroxy-6-[5-(4-methyl-piperazine-1-carbonyl)-thiophen-2-yl]-naphthalene-1-carbaldehyde]
- Myeloma tumor growth [12]: reduced myeloma tumor growth
- Splicing of XBP1 mRNA in tissues and tumors [12]: inhibited the splicing of XBP1 mRNA in tissues and tumors
- Tolerability in vivo [12]: readily tolerated with high exposure

Compound: Cc1cc(=O)oc2c(C=O)c(O)ccc12 [4μ8C]
- XBP1s, inflammatory cytokines and inflammation [13]: effective in suppressing

Compound: JAK inhibitor I
- IC50 [14]: 1.1 µM
- Effect on dimerization/oligomerization of yeast IRE1 and its RNase activity [15]: promoted
- Effect on concentration dependent oligomerization of IRE1α [16]: enhanced

Reference: article PMC4486471 (Nature communications, 2014)
